Measured values taken from US7745420B2, “Methods for increasing in vivo efficacy of oligonucleotides and inhibiting inflammation in mammals” (Topigen Pharmaceutique, Inc., priority 2001, dated 2010).
[DAP] = 2,6-diaminopurine base replacing adenine; [I] = hypoxanthine (inosine)

How the values were obtained:
rat model of asthma [1] = assay: Cellular influx into the lungs after antigen challenge (lung lavage differential cell count); format: in vivo; details: 200 μg intratracheal before ovalbumin challenge; for inhibition of recruitment of eosinophils: bronchoalveolar lavage after 15 hours
Experimental: (§1) Active sensitization of rats was performed by subcutaneous injection of 1 ml of saline containing 1 mg of chicken egg ovalbumin (OA) (Sigma, St. Louis, Mo.) and 3.5 mg of aluminum hydroxide gel (BDH Chemicals, Poole, UK).
On day 14 after sensitization with ovalbumin, after general anesthesia with 65 mg/Kg pentothal and endotracheal intubation, ovalbumin challenge is performed by injecting 200 micrograms of ovalbumin in 60 μl intratracheally. After 8 hours or 15 hours, the rats are again intubated after general anesthesia and a lung lavage consisting of 5 times 5 ml instillation of 0.9% saline is performed. Cells are washed, counted and centrifuged onto slides in a Cytospin III™. A differential cell count is performed.
On day 14, the rats were intubated after general anesthesia with pentothal (65 mg/kg) and received 200 μg of ASA4, ASA4-DAP (5′-DapCTCDapTDapTTCDapTDapGGGTG-3′; SEQ ID NO:27), AS141-DAP (5′-TGGCDapCTTTDapGGTGGCTG-3′; SEQ ID NO:29), mismatch AS141-DAP (5′-GTGCCDapTTTGDapGTGGCTG-3′; SEQ ID NO:30), combination of ASA4-DAP and AS141-DAP (total of 100 μg) or saline in 50 μl of 0.9% NaCl intratracheally. Twenty minutes later ovalbumin challenge is performed by injecting 200 μg of ovalbumin in 50 μl of 0.9% saline intratracheally. After 15 hours, the rats were again intubated after general anesthesia, and a lung lavage consisting of 5 times 5 ml instillation was performed. Cells were washed, counted and centrifuged onto slides in a Cytospin III™. A differential cell count was finally performed.

rat model of asthma [2] = details: see WO 99/66037; cited from earlier work
rat model of asthma [3] = assay: Leukotriene D4 responsiveness after antigen (ovalbumin) challenge; format: in vivo; details: 200 μg intratracheal, 15 hours after ovalbumin challenge; for airway responsiveness to leukotriene D4: vs control challenged and DAP mismatch treated rats
Experimental: as §1
(§2) The equipment and methodology for measuring pulmonary resistance was as previously described (Renzi, P. M., et al. Am. Rev. Respir. Dis 146: 163-169, 1992). General anesthesia was induced with either pentothal (50 mg/kg) or urethane (1.1 g/kg) intra-peritoneally. Endo-tracheal intubation was then performed using a 6 cm length of PE-240™ polyethylene catheter. A heating pad was used to maintain constant body temperature and rectal temperature was monitored continuously with an electronic thermometer (Telethermometer™, Yellow Springs Instrument Co., Yellowsprings, Ohio). Lung resistance (RL) was measured during spontaneous tidal breathing with the animals in the lateral decubitus position. Flow was measured by placing the tip of the tracheal tube inside a small Plexiglass™ box (265 ml in volume). A Fleish™ No. 0 pneumotachograph coupled to a differential pressure transducer (MP-45+2 cm H20; Validyne Corp, Northridge, Calif.) was attached to the other end of the box to measure airflow, and volume was obtained by numerical integration of the flow signal. Changes in esophageal pressure were measured by using a saline-filled catheter and a differential pressure transducer (Sanborn 267 BC™; Hewlett Packard, Waltham, Mass.). The other port of the transducer was connected to the box. The esophageal catheter consisted of polyethylene tubing (PE-200™) 20-cm long attached to a shorter length (6 cm) of tubing (PE-100™). Transpulmonary pressure was computed as the difference between esophageal and box pressure. The airway response was evaluated from RL, which was determined by fitting the equation of motion of the lung by multiple linear regression using commercial software (RHT-Infodat Inc., Montreal, Quebec, Canada).
We have previously shown that the antisense ASA4 (5′-ACTCATATTC ATAGGGTG-3′; SEQ ID NO:26) directed against the rat CCR3 receptor was effective at inhibiting eosinophil influx into the lungs after antigen challenge (see WO 99/66037). We employed the same oligonucleotide sequences for these experiments. […] After 15 hours, the rats were again intubated after general anesthesia, baseline lung resistance measured and doubling concentrations of leukotriene D4 injected intratracheally (50 ng to 1600 ng) until baseline lung resistance doubled (EC200).

[4] = test system: common Beta chain of human GM-CSF, IL-3 and IL-5 receptor; assay: Semi-quantitative RT-PCR of common beta chain mRNA in U937 cells treated with antisense; format: cell-based; details: 10 μmol, six hours, compared to AS107
Experimental: Experiments were performed to assess whether antisense oligonucleotides described in international application WO 99/66037 (incorporated herein) directed against the common beta sub-unit of the IL-3, IL-5 and GM-CSF receptor, could inhibit the expression and the function of this receptor when modified by replacing adenosine by either 2-amino-2′-deoxyadenosine or inosine. TF-1 and U937 cells express high levels of GM-CSF receptors. In addition, TF-1 cells are dependent on GM-CSF for survival. These cells were cultured in RPMI 1640 supplemented with 10% heat-inactivated fetal calf serum, penicillin, streptomycin and 1-glutamine at 37° C. in 5% CO2 (the TF-1 cells were supplemented with GM-CSF). […] The sequence for 107A-DAP was: 5′-GGGTCTGCDapGCGGGDapTGGT-3′ (SEQ ID NO:21); the sequence for 107A-inosine (107A-I) was: 5′-GGGTCTGCIGCGGGIT GGT-3′ (SEQ ID NO:22). The cells were retrieved and washed 3 times. RNA was then retrieved and the presence of the beta chain of the receptor was assessed by semi-quantitative RT-PCR.

[5] = test system: sensitized but unchallenged Brown Norway rats; assay: Cellular influx into the lungs after adenosine or DAP administration; format: in vivo, rat
Experimental: Fourteen days after sensitization, the rats were intubated after anesthesia with pentothal 65 mg/kg, and 100 μg of adenosine or 2-amino-2′-deoxyadenosine or of 2-amino-2′deoxyadenosine followed 10 minutes later by adenosine or of saline was injected intratracheally in 50 μl. Fifteen hours later, the rats were intubated after general anesthesia with pentothal, and a lung lavage was performed and the cells were counted as described above.
In another experiment, groups of six sensitized but unchallenged Brown Norway rats were anesthetized with pentothal and endotracheally intubated. The rats then received an intratracheal injection of either (1) saline (control), (2) 100 μg of adenosine, (3) 100 μg of 2-amino-2′-deoxyadenosine (DAP) or (4) 100 μg of DAP followed by 100 μg of adenosine 10 minutes later. The rats were awakened, re-anesthetized and intubated 15 hours later for a lung lavage. Cells that were present in media collected from the lavage, were counted and a differential was obtained on Cytospin∩ slides.

[6] = test system: sensitized Brown Norway rats; assay: Airway responsiveness (lung resistance) to intratracheal adenosine, DAP nucleoside and DAP analogs; format: in vivo, rat
Experimental: as §1, §2
On day 14 post-sensitization, rats were anesthetized with pentothal (65 mg/kg), intubated, and baseline RL was measured. Rats were given incremental doses intratracheally of adenosine (CAS 58-61-7), 2,6-diaminopurine hemisulfate salt (CAS 69369-16-0), DAP (2-amino-2-deoxyadenosine; CAS 4546-70-7), 2-amino-9-(B-D-2′-deoxyribo furanosyl)purine (CAS 3616-24-8), 7-Deaza-2′deoxyadenosine (CAS 60129-59-1), N6-Methyl-2′-deoxyadenosine (CAS 2002-35-9), 2-aminoadenosine/2,6-diamunopurine riboside (CAS 2096-10-08) over the dose range of 0.125 μg to 100 μg in 50 μl of either saline or saline plus acetic acid. Immediately after each dose RL was measured. DAP was dissolved as follows: 3 mg of DAP was combined with 100 μl of acetic acid, adjusted to 1.5 to 3 ml by the addition of saline, and heated to 70° C. This gave a final concentration of 1 to 2 μg/μl. Dilutions were performed in the same buffer. Control animals received saline with acetic acid at the same final concentration as indicated.

[7] = at 5 fold lower concentration (1 μg)
[8] = at peak adenosine toxicity (5 μg)
[9] = 100 μg intratracheal, lung lavage 15 hours later

5′-ACTCATATTC ATAGGGTG-3′ (antisense ACTCATATTCATAGGGTG; DNA, all phosphorothioate, methylation of C not given here) [ASA4]
inhibition of recruitment of eosinophils (rat model of asthma [1]): 84% | lymphocyte recruitment (rat model of asthma [1]; lavage after 15 hours): significant decrease | macrophage recruitment (rat model of asthma [1]; lavage after 15 hours): strong trends for decreases | neutrophil recruitment (rat model of asthma [1]; lavage after 15 hours): strong trends for decreases | inhibition of the eosinophil influx that occurs after antigen challenge (rat model of asthma [2]): inhibit the eosinophil influx

5′-DapCTCDapTDapTTCDapTDapGGGTG-3′ (antisense NCTCNTNTTCNTNGGGTG; DNA, [DAP] at 1, 5, 7, 11, 13, all phosphorothioate, methylation of C not given here) [ASA4-DAP]
inhibition of recruitment of eosinophils (rat model of asthma [1]): 83% | decrease of lymphocyte recruitment (rat model of asthma [1]; lavage after 15 hours): 74% | macrophage recruitment (rat model of asthma [1]; lavage after 15 hours): tended to decrease | neutrophil recruitment (rat model of asthma [1]; lavage after 15 hours): tended to decrease | airway responsiveness to leukotriene D4, compared to unchallenged rats (rat model of asthma [3]): no different | airway responsiveness to leukotriene D4, compared to unmodified ASA4 (rat model of asthma [3]): tended to be more effective | airway responsiveness to leukotriene D4 (rat model of asthma [3]): significantly decreased

5′-GGGTCTGCIGCGGGIT GGT-3′ (DNA GGGTCTGCNGCGGGNTGGT; DNA, [I] at 9, 15, backbone and methylation of C not given here) [AS107-I, reference compound]
inhibiting mRNA expression, semi-quantitative PCR [4]: not effective

5′-TGGCACTTTAGGTGGCTG-3′ (phosphorothioate backbone, further chemistry not given here) [AS141]
lymphocyte recruitment (rat model of asthma [1]; lavage after 15 hours): significant decrease | macrophage recruitment (rat model of asthma [1]; lavage after 15 hours): significant decrease | neutrophil recruitment (rat model of asthma [1]; lavage after 15 hours): strong trends for decreases | recruitment of eosinophils (rat model of asthma [1]; lavage after 15 hours): effectively inhibited | inhibition of the eosinophil influx that occurs after antigen challenge (rat model of asthma [2]): inhibit the eosinophil influx | airway responsiveness to leukotriene D4 (rat model of asthma [3]): decreased significantly

5′-TGGCDapCTTTDapGGTGGCTG-3′ (antisense TGGCNCTTTNGGTGGCTG; diaminopurine (Dap) replaces adenosine at two places, sugar and backbone not given here, further chemistry not given here) [AS141-DAP]
macrophage recruitment (rat model of asthma [1]; lavage after 15 hours): significantly decreased | recruitment of eosinophils (rat model of asthma [1]; lavage after 15 hours): effectively inhibited

Nc1nc(N)c2ncn([C@H]3C[C@H](O)[C@@H](CO)O3)c2n1 [DAP, 2-amino-2-deoxyadenosine]
inhibition of eosinophil recruitment induced by adenosine ([5]; 100 μg DAP followed by 100 μg adenosine 10 minutes later, lavage 15 hours later): completely inhibits the recruitment of eosinophils | relative toxicity ranking (lung resistance) [6, 7]: adenosine>2 amino-2 deoxyadenosine/DAP>rest | relative toxicity ranking (lung resistance) [6, 8]: adenosine>N6-Methyl-2′deoxyadenosine>rest including DAP | effect on lung resistance (% baseline) after intratracheal dosing ([6]; incremental doses 0.125 μg to 100 μg intratracheal, sensitized rats): does not significantly increase lung resistance

CNc1ncnc2c1ncn2[C@H]1C[C@H](O)[C@@H](CO)O1 [N6-Methyl-2′deoxyadenosine, N6-methyl-2′-deoxyadenosine]
relative toxicity ranking (lung resistance) [6, 8]: adenosine>N6-Methyl-2′deoxyadenosine>rest including DAP

Nc1ncnc2c1ncn2[C@@H]1O[C@H](CO)[C@@H](O)[C@H]1O [adenosine, reference compound]
effect on other cell types in lung lavage [5, 9]: without significantly affecting other cell types | increase of eosinophil recruitment into the lungs [5, 9]: more than 10 fold | relative toxicity ranking (lung resistance) [6, 7]: adenosine>2 amino-2 deoxyadenosine/DAP>rest | relative toxicity ranking (lung resistance) [6, 8]: adenosine>N6-Methyl-2′deoxyadenosine>rest including DAP | dose at which lung resistance peaks ([6]; incremental intratracheal doses, sensitized rats): 5 µg
